# ChEMBL document CHEMBL3045822, “Growth retarding activity of lichen substances against the polyphagous herbivorous insect Spodoptera littoralis” (1994)
# The source made the active and inactive calls. The calls are words filed in the database; no cut-off is given here.
# Key:
# [1] = tested on: Spodoptera littoralis; test: Growth retarding activity against neonate larval stage of Spodoptera littoralis fed with diet containing compound measured per gm of dry weight after 6 days by chronic feeding bioassay; assay type: functional; details: 144 h, read-out: ED50
# [2] = tested on: Spodoptera littoralis; test: Toxicity against neonate larval stage of Spodoptera littoralis fed with diet containing compound assessed as reduction in larval survival measured per gm dry weight after 6 days by chronic feeding assay; assay type: functional; details: 144 h, read-out: ED50
# [3] = tested on: Spodoptera littoralis; test: Growth retarding activity against neonate larval stage of Spodoptera littoralis fed with diet containing compound assessed as larval weight at 70 umol/gm dry weight after 6 days by chronic feeding bioassay (reference value: 100%); assay type: functional
# [4] = tested on: Spodoptera littoralis; test: Growth retarding activity against neonate larval stage of Spodoptera littoralis fed with diet containing compound assessed as larval weight after 6 days by chronic feeding bioassay (reference value: 100%); assay type: functional
# [5] = tested on: Spodoptera littoralis; test: Toxicity against neonate larval stage of Spodoptera littoralis fed with diet containing compound assessed as reduction in larval survival at 15 to 110 umol/gm dry weight after 6 days by chronic feeding assay; assay type: functional, organism-based
# [6] = tested on: Spodoptera littoralis; test: Prolongation of duration of larval period in Spodoptera littoralis fed with diet containing compound at 110 umol/gm dry weight treated for 6 days measured after transferring onto control diet by chronic feeding bioassay (reference value: 17 to 20 days); assay type: functional
# [7] = tested on: Spodoptera littoralis; test: Change in pupal weight of Spodoptera littoralis fed with diet containing compound at 110 umol/gm dry weight treated for 6 days measured after transferring onto control diet by chronic feeding bioassay (reference value: 0.40 +/-0.05 gms); assay type: functional
# [8] = tested on: Spodoptera littoralis; test: Induction of imago developmental aberrations with imperfect wings in Spodoptera littoralis fed with diet containing compound at 110 umol/gm dry weight treated for 6 days measured after transferring onto control diet by chronic feeding bioassay; assay type: functional
# [9] = tested on: Spodoptera littoralis; test: Growth retarding activity against neonate larval stage of Spodoptera littoralis fed with diet containing compound assessed as larval weight at 94 umol/gm dry weight after 6 days by chronic feeding bioassay (reference value: 100%); assay type: functional
# [10] = tested on: Spodoptera littoralis; test: Growth retarding activity against neonate larval stage of Spodoptera littoralis fed with diet containing compound assessed as larval weight at 41 umol/gm dry weight after 6 days by chronic feeding bioassay (reference value: 100%); assay type: functional
# [11] = tested on: Spodoptera littoralis; test: Reduction in number of imagoes emerging from pupae in Spodoptera littoralis fed with diet containing compound at 110 umol/gm dry weight after 6 days by chronic feeding bioassay (reference value: 90%); assay type: functional; set-up: scale not given: the % may be the effect or the level left
# [12] = tested on: Spodoptera littoralis; test: Growth retarding activity against neonate larval stage of Spodoptera littoralis fed with diet containing compound assessed as larval weight at 104 umol/gm dry weight after 6 days by chronic feeding bioassay (reference value: 100%); assay type: functional
Structure (SMILES),EC50 [1],Activity [5],Time [6],Activity [7],other results
CC(=O)C1=C(O)C=C2Oc3c(C(C)=O)c(O)c(C)c(O)c3[C@@]2(C)C1=O [(+)-USNIC ACID],4.5 µmol/g,,,,EC50 [2]: 90.8 µmol/g
CC(=O)C1=C(O)C=C2Oc3c(C(C)=O)c(O)c(C)c(O)c3[C@]2(C)C1=O [(-)-USNIC ACID],1.2 µmol/g,,,,EC50 [2]: 8.6 µmol/g
COC(=O)c1c(C)cc(OC(=O)c2c(C)cc(O)c(C=O)c2O)c(C)c1O [ATRANORIN],> 110 µmol/g,inactive,,,Activity [3]: 52%; Activity [4]: 51%
O=C1O/C(=C2/C(=O)Oc3ccccc32)C(O)=C1c1ccccc1 [CALYCIN],37.6 µmol/g,inactive,21 days,0.33 g,Activity [8]: 44%
COc1cc(C)c(C(=O)Oc2cc(C)c(C(=O)O)c(O)c2)c(O)c1 [EVERNIC ACID],> 110 µmol/g,inactive,,,
Cc1cc(O)c(C=O)c2c1C(=O)Oc1c(COC(=O)/C=C/C(=O)O)c(O)c(C(=O)O)c(C)c1O2 [FUMARPROTOCETRARIC ACID],30.5 µmol/g,inactive,24 days,0.45 g,
Cc1cc(O)c(C=O)c2c1C(=O)Oc1c(C)c(O)c3c(c1O2)C(O)OC3=O (stereo not drawn) [NORSTICTIC ACID],32 µmol/g,inactive,17 days,0.33 g,Activity [9]: 18%; Activity [4]: 18%
CCCCCC(=O)Cc1cc(O)c(O)c2c1C(=O)Oc1cc(O)c(C(=O)O)c(CCCCC)c1O2 [OXYPHYSODIC ACID],11.2 µmol/g,inactive,19 days,0.33 g,Activity [10]: 15%; Activity [8]: 50%
CCCCCC(=O)Cc1cc(O)cc2c1C(=O)Oc1cc(O)c(C(=O)O)c(CCCCC)c1O2 [PHYSODIC ACID],> 110 µmol/g,inactive,,,
COc1cc(C(=O)O)c2c(c1C)OC(=O)c1c(C)cc(O)c(C=O)c1O2 [PSOROMIC ACID],46.2 µmol/g,inactive,20 days,0.41 g,
O=C1OC2=C(c3ccccc3)C(=O)OC2=C1c1ccccc1 [PULVINIC DILACTONE],> 110 µmol/g,inactive,,,
COC(=O)C(Cc1ccccc1)NC(=O)/C(=C1/OC(=O)C(c2ccccc2)=C1O)c1ccccc1 (stereo not drawn) [RHIZOCARPIC ACID],70.8 µmol/g,inactive,19 days,0.28 g,Activity [11]: 25%
Cc1cc(O)c(C=O)c2c1C(=O)Oc1c(CO)c(O)c3c(c1O2)C(O)OC3=O (stereo not drawn) [SLAZINIC ACID],29.2 µmol/g,inactive,24 days,0.4 g,
COc1cc(C)c2c(c1C=O)Oc1c(c(C)c(O)c3c1C(O)OC3=O)OC2=O (stereo not drawn) [STICTIC ACID],57.5 µmol/g,inactive,20 days,0.41 g,Activity [12]: 27%
COC(=O)/C(=C1/OC(=O)C(c2ccccc2)=C1O)c1ccccc1 [VULPINIC ACID],17.2 µmol/g,inactive,23 days,0.32 g,Activity [8]: 14%
